# Measured values reported in PubChem BioAssay (NCI).
#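 Tested at 5 concentrations; 48 h exposure; 96-well plates; endpoints linearly interpolated, else capped at highest concentration. TGI is the concentration that stops growth completely.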
# System: CCRF-CEM leukemia
# Assay: NCI-60 cell line screen, 48 h
row,SMILES,TGI
1,COc1ccc(CNc2nc(NCc3ccc(OC)c(OC)c3)nc(NC3CCCCC3)n2)cc1,> 100 µM
2,Cc1cn(C2CC(n3cc(Cn4cc(I)c(=O)[nH]c4=O)nn3)C(CO)O2)c(=O)[nH]c1=O (centres undefined),> 100 µM
3,CNC(=O)OCC1=C(COC(=O)NC)C(C)N(c2ccc(OC)cc2)C1 (centres undefined),> 100 µM
4,c1ccc(N=C2SC3=Nc4cccc5cccc(c45)N3C2=Nc2ccccc2)cc1,> 100 µM
5,O=C1CCC(=O)N1n1c(Cc2ccccc2)n[nH]c1=O,> 100 µM
6,O=C(O)CN(CC(=O)O)C1CCCCC1N(CC(=O)O)CC(=O)NCCN=C=S (centres undefined),> 100 µM
7,Cc1nc(C(N)=S)sc1/C(CC(=O)C(=O)Nc1cccc2ccc(O)cc12)=N\NC(=O)c1ccncc1,> 100 µM
8,O=C1CCC23CC(C=CC=C12)n1c(=O)n(-c2ccccc2)c(=O)n13 (centres undefined),> 100 µM
9,O=C(O)c1cccc2c1/C(=N/Nc1ccccc1)CC2,> 100 µM
10,O=C(Cc1cccs1)N[C@@H]1C(=O)N2C(C(=O)OC(c3ccccc3)c3ccccc3)=C(CO)CS[C@H]12,> 100 µM
11,Cc1ccccc1-n1c(=O)c2ncn(CCCl)c2n(-c2ccccc2C)c1=S,> 100 µM

# System: KM12 colon
# Assay: NCI-60 cell line screen, 48 h
row,SMILES,TGI
1,O=c1[nH][nH]c(=O)n1Cc1ccccc1Cn1c(=O)[nH][nH]c1=O,> 100 µM
2,CCNC(=S)N/N=C/c1cc([N+](=O)[O-])ccc1O,> 100 µM
3,CCOC(=O)c1c2ccccc2n2c(N)c(C(N)=O)nnc12,> 100 µM
4,Cc1cc(N(CCC#N)CCC#N)ccc1/C(N=Nc1ccc(Cl)cc1)=N\NC(=O)c1ccccc1,> 100 µM
5,CC[C@@]1(O)C(=O)OCc2c1cc1n(c2=O)Cc2c-1nc1ccccc1c2/C=N\NC(=O)CN,> 100 µM
6,CCc1ccc(CCN2CCCCC2)nc1,> 100 µM
7,CNC(=O)C(C)C1CCC2(C)C=CC(=O)C(C)=C2C1O (centres undefined),> 100 µM
8,O=C(NNC(=O)c1ccccc1SSc1ccccc1C(=O)NNC(=O)c1ccccc1S)c1ccccc1S,> 100 µM
9,CCOC(=O)C(NC(C)=O)(Nc1ccc(F)cc1)C(F)(F)F (centres undefined),> 100 µM
10,CCOc1cc2c(cc1O)/C(=N\OC)C[C@@H]1[C@@H]2CC[C@]2(C)[C@@H](O)CC[C@@H]12,7.63 µM
11,O=C1/C(=C/c2ccc(O)cc2)CC/C1=C\c1ccc(O)cc1,> 100 µM
12,CC(C)C1/C(=N/O)CC(c2ccccc2)N(N=O)C1c1ccccc1 (centres undefined),> 100 µM
13,CC1(C)N=C(/C(Cl)=[N+](/[O-])C(=O)c2ccc(F)cc2)C(C)(C)N1O,67.8 µM
14,COC(=O)[C@H](Cc1c[nH]c2ccccc12)NP(=O)(O)OCC1C=CC(n2cc(C)c(=O)[nH]c2=O)O1 (some centres undefined),> 100 µM
15,COc1cc(/C=C2\S/C(=N/Nc3nc(-c4ccc(Br)cc4)cs3)NC2=O)cc(OC)c1OC,32.8 µM
16,COC(=O)[C@H]1CO[C@@H](C(C)(C)C)N1C(=O)N1C=CC(=O)C[C@@H]1C,> 100 µM
17,O=C(Nc1ccc(C2=NCCN2)cc1)c1cncc(C(=O)Nc2ccc(C3=NCCN3)cc2)c1,> 100 µM
18,Clc1ccc(/C=C/c2nc3ccccc3s2)cc1Cl,> 100 µM
19,CCC1(O)CC2CC(=O)OC2C1O (centres undefined),> 100 µM
20,C(/c1ccco1)=c1/nc(-c2ccccc2)n2c1nc1ccccc12,> 100 µM
21,COC(=O)C1CCC(=O)N1C(c1ccccc1)c1ccc(OC)c(OC)c1 (centres undefined),> 100 µM

row,SMILES,TGI
1,Oc1cccc2c(Cl)ccnc12,82.3 µM
2,Cc1cccc(/C=N/NC(=S)Nc2ccccc2)n1,> 100 µM
3,N#CC1=C(N)N(c2ccccc2)C(c2ccco2)C1(C#N)C#N (centres undefined),37.2 µM
4,Cc1cc(=O)[nH]c(NN2C(Cl)C(=O)C2c2ccccc2O)n1 (centres undefined),> 100 µM
5,COc1ccc(/C=C2\CCC(C)C3=C2NC(=S)NC3c2ccc(OC)c(OC)c2)cc1OC (centres undefined),> 31.6 µM
6,CC(C)CCCCCCCCCCCCC(=O)NCC(=O)NC1C(C)OC(Nc2ncnc3c2ncn3C)C(O)C1O (centres undefined),> 100 µM
7,COc1ccc(CNc2nc(NCc3ccc(OC)c(OC)c3)nc(NC3CCCCC3)n2)cc1,17 µM
8,C=C(C1=CC(=O)C(C)(C)O1)[C@@H]1CC=C([C@@H]2CC[C@H]3[C@@]2(C)CC[C@H]2C(C)(C)C(=O)[C@H](O)C[C@]32C)[C@H](O)O1,20.4 µM
9,Cc1cn(C2CC(n3cc(Cn4cc(I)c(=O)[nH]c4=O)nn3)C(CO)O2)c(=O)[nH]c1=O (centres undefined),> 100 µM
10,CNC(=O)OCC1=C(COC(=O)NC)C(C)N(c2ccc(OC)cc2)C1 (centres undefined),> 100 µM
11,c1ccc(N=C2SC3=Nc4cccc5cccc(c45)N3C2=Nc2ccccc2)cc1,> 100 µM
12,O=C1CCC(=O)N1n1c(Cc2ccccc2)n[nH]c1=O,46.4 µM
13,O=C(O)CN(CC(=O)O)C1CCCCC1N(CC(=O)O)CC(=O)NCCN=C=S (centres undefined),> 100 µM
14,Cc1nc(C(N)=S)sc1/C(CC(=O)C(=O)Nc1cccc2ccc(O)cc12)=N\NC(=O)c1ccncc1,> 100 µM
15,Cc1cn(C2CC(N(O)C(N)=O)C(CO)O2)c(=O)[nH]c1=O (centres undefined),> 100 µM
16,O=C1CCC23CC(C=CC=C12)n1c(=O)n(-c2ccccc2)c(=O)n13 (centres undefined),> 100 µM
17,O=C(O)c1cccc2c1/C(=N/Nc1ccccc1)CC2,> 100 µM
18,O=C(Cc1cccs1)N[C@@H]1C(=O)N2C(C(=O)OC(c3ccccc3)c3ccccc3)=C(CO)CS[C@H]12,> 100 µM
19,CC1=C(C)[C@@]2(C)O[C@@]2(C)O[C@@]2(C)O[C@@]12C,> 100 µM
20,Cc1ccccc1-n1c(=O)c2ncn(CCCl)c2n(-c2ccccc2C)c1=S,> 100 µM

# System: SF-539 CNS
# Assay: NCI-60 cell line screen, 48 h
row,SMILES,TGI
1,O=c1[nH][nH]c(=O)n1Cc1ccccc1Cn1c(=O)[nH][nH]c1=O,> 100 µM
2,CCNC(=S)N/N=C/c1cc([N+](=O)[O-])ccc1O,> 100 µM
3,CCOC(=O)c1c2ccccc2n2c(N)c(C(N)=O)nnc12,49.8 µM
4,Cc1cc(N(CCC#N)CCC#N)ccc1/C(N=Nc1ccc(Cl)cc1)=N\NC(=O)c1ccccc1,50.8 µM
5,CC[C@@]1(O)C(=O)OCc2c1cc1n(c2=O)Cc2c-1nc1ccccc1c2/C=N\NC(=O)CN,0.127 µM
6,CNC(=O)C(C)C1CCC2(C)C=CC(=O)C(C)=C2C1O (centres undefined),> 100 µM
7,O=C(NNC(=O)c1ccccc1SSc1ccccc1C(=O)NNC(=O)c1ccccc1S)c1ccccc1S,> 53.9 µM
8,CCOC(=O)C(NC(C)=O)(Nc1ccc(F)cc1)C(F)(F)F (centres undefined),> 100 µM
9,O=C1/C(=C/c2ccc(O)cc2)CC/C1=C\c1ccc(O)cc1,> 100 µM
10,CC(C)C1/C(=N/O)CC(c2ccccc2)N(N=O)C1c1ccccc1 (centres undefined),> 100 µM
11,CC1(C)N=C(/C(Cl)=[N+](/[O-])C(=O)c2ccc(F)cc2)C(C)(C)N1O,40.1 µM
12,COc1cc(/C=C2\S/C(=N/Nc3nc(-c4ccc(Br)cc4)cs3)NC2=O)cc(OC)c1OC,29.1 µM
13,O=C(Nc1ccc(C2=NCCN2)cc1)c1cncc(C(=O)Nc2ccc(C3=NCCN3)cc2)c1,> 100 µM
14,Clc1ccc(/C=C/c2nc3ccccc3s2)cc1Cl,> 100 µM
15,CCC1(O)CC2CC(=O)OC2C1O (centres undefined),> 100 µM
16,Cc1ccc(SCC(CSCCO)OCn2cnc3c2NC(N)=NC32OCCO2)cc1 (centres undefined),> 100 µM
17,C(/c1ccco1)=c1/nc(-c2ccccc2)n2c1nc1ccccc12,> 100 µM
18,COC(=O)C1CCC(=O)N1C(c1ccccc1)c1ccc(OC)c(OC)c1 (centres undefined),> 100 µM

row,SMILES,TGI
1,Oc1cccc2c(Cl)ccnc12,> 60.5 µM
2,Cc1cccc(/C=N/NC(=S)Nc2ccccc2)n1,10.4 µM
3,N#CC1=C(N)N(c2ccccc2)C(c2ccco2)C1(C#N)C#N (centres undefined),41.2 µM
4,Cc1cc(=O)[nH]c(NN2C(Cl)C(=O)C2c2ccccc2O)n1 (centres undefined),> 58.6 µM
5,COc1ccc(/C=C2\CCC(C)C3=C2NC(=S)NC3c2ccc(OC)c(OC)c2)cc1OC (centres undefined),> 31.6 µM
6,CC(C)CCCCCCCCCCCCC(=O)NCC(=O)NC1C(C)OC(Nc2ncnc3c2ncn3C)C(O)C1O (centres undefined),13.1 µM
7,COc1ccc(CNc2nc(NCc3ccc(OC)c(OC)c3)nc(NC3CCCCC3)n2)cc1,8.46 µM
8,C=C(C1=CC(=O)C(C)(C)O1)[C@@H]1CC=C([C@@H]2CC[C@H]3[C@@]2(C)CC[C@H]2C(C)(C)C(=O)[C@H](O)C[C@]32C)[C@H](O)O1,2.73 µM
9,Cc1cn(C2CC(n3cc(Cn4cc(I)c(=O)[nH]c4=O)nn3)C(CO)O2)c(=O)[nH]c1=O (centres undefined),> 100 µM
10,CNC(=O)OCC1=C(COC(=O)NC)C(C)N(c2ccc(OC)cc2)C1 (centres undefined),> 100 µM
11,O=C(O)CN(CC(=O)O)C1CCCCC1N(CC(=O)O)CC(=O)NCCN=C=S (centres undefined),> 100 µM
12,Cc1nc(C(N)=S)sc1/C(CC(=O)C(=O)Nc1cccc2ccc(O)cc12)=N\NC(=O)c1ccncc1,> 100 µM
13,Cc1cn(C2CC(N(O)C(N)=O)C(CO)O2)c(=O)[nH]c1=O (centres undefined),> 100 µM
14,O=C1CCC23CC(C=CC=C12)n1c(=O)n(-c2ccccc2)c(=O)n13 (centres undefined),> 100 µM
15,O=C(O)c1cccc2c1/C(=N/Nc1ccccc1)CC2,> 100 µM
16,O=C(Cc1cccs1)N[C@@H]1C(=O)N2C(C(=O)OC(c3ccccc3)c3ccccc3)=C(CO)CS[C@H]12,> 100 µM
17,Cc1ccccc1-n1c(=O)c2ncn(CCCl)c2n(-c2ccccc2C)c1=S,> 100 µM

# System: NCI/ADR-RES ovarian
# Assay: NCI-60 cell line screen, 48 h
row,SMILES,TGI
1,O=c1[nH][nH]c(=O)n1Cc1ccccc1Cn1c(=O)[nH][nH]c1=O,> 100 µM
2,CCNC(=S)N/N=C/c1cc([N+](=O)[O-])ccc1O,77.3 µM
3,CCOC(=O)c1c2ccccc2n2c(N)c(C(N)=O)nnc12,> 100 µM
4,Cc1cc(N(CCC#N)CCC#N)ccc1/C(N=Nc1ccc(Cl)cc1)=N\NC(=O)c1ccccc1,> 100 µM
5,CC[C@@]1(O)C(=O)OCc2c1cc1n(c2=O)Cc2c-1nc1ccccc1c2/C=N\NC(=O)CN,> 76.5 µM
6,CCc1ccc(CCN2CCCCC2)nc1,> 100 µM
7,CNC(=O)C(C)C1CCC2(C)C=CC(=O)C(C)=C2C1O (centres undefined),> 71.7 µM
8,O=C(NNC(=O)c1ccccc1SSc1ccccc1C(=O)NNC(=O)c1ccccc1S)c1ccccc1S,> 73.6 µM
9,CCOC(=O)C(NC(C)=O)(Nc1ccc(F)cc1)C(F)(F)F (centres undefined),> 100 µM
10,CCOc1cc2c(cc1O)/C(=N\OC)C[C@@H]1[C@@H]2CC[C@]2(C)[C@@H](O)CC[C@@H]12,0.186 µM
11,O=C1/C(=C/c2ccc(O)cc2)CC/C1=C\c1ccc(O)cc1,> 100 µM
12,CC(C)C1/C(=N/O)CC(c2ccccc2)N(N=O)C1c1ccccc1 (centres undefined),> 100 µM
13,CC1(C)N=C(/C(Cl)=[N+](/[O-])C(=O)c2ccc(F)cc2)C(C)(C)N1O,> 100 µM
14,COC(=O)[C@H](Cc1c[nH]c2ccccc12)NP(=O)(O)OCC1C=CC(n2cc(C)c(=O)[nH]c2=O)O1 (some centres undefined),> 100 µM
15,COc1cc(/C=C2\S/C(=N/Nc3nc(-c4ccc(Br)cc4)cs3)NC2=O)cc(OC)c1OC,35.1 µM
16,COC(=O)[C@H]1CO[C@@H](C(C)(C)C)N1C(=O)N1C=CC(=O)C[C@@H]1C,> 100 µM
17,O=C(Nc1ccc(C2=NCCN2)cc1)c1cncc(C(=O)Nc2ccc(C3=NCCN3)cc2)c1,> 100 µM
